According to ChEMBL document CHEMBL1201862, “PubChem BioAssay data set” (2004):
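Grown in 96-well plates, cells were treated for 48 hours with each compound at five concentrations. Insufficient inhibition: endpoint recorded as highest concentration tested. At the GI50, growth is halved.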 Active and inactive are the calls of the source. Rule as the data show it: active = GI50 up to about 1.1 µM and inactive = higher.

Key:
Assay in all cases: growth of human tumour cells (NCI), 48 h
[1] = system: NCI-H460
[2] = system: MOLT-4
[3] = system: M14
[4] = system: U-251
[5] = system: SR
[6] = system: NCI-H522
[7] = system: HOP-92
[8] = system: SW-620
[9] = system: T47D
[10] = system: UO-31
[11] = system: DMS-114
[12] = system: SN12C
[13] = system: RPMI-8226
[14] = system: MCF7
[15] = system: DU-145
[16] = system: MDA-MB-231
[17] = system: XF498
[18] = system: SNB-19
[19] = system: NCI-H226
[20] = system: LOX IMVI
[21] = system: CAKI-1
[22] = system: A498
[23] = system: DLD-1
[24] = system: Hs-578T
[25] = system: HCC 2998
[26] = system: IGROV-1
[27] = system: HCT-15
[28] = system: MDA-N
[29] = system: DMS-273
[30] = system: PC-3
[31] = system: RXF 631
[32] = system: HCT-116
[33] = system: RXF 393
[34] = system: EKVX
[35] = system: KM12
[36] = system: SNB-75
[37] = system: K562
[38] = system: SK-MEL-2
[39] = system: MDA-MB-435
[40] = system: SNB-78
[41] = system: HOP-18
[42] = system: SF-268
[43] = system: NCI/ADR-RES
[44] = system: OVCAR-8
[45] = system: SF-539
[46] = system: HT-29
[47] = system: NCI-H23
[48] = system: SK-MEL-5
[49] = system: HL-60
[50] = system: LXFL 529
[51] = system: OVCAR-4
[52] = system: A549
[53] = system: CCRF-CEM
[54] = system: SF-295
[55] = system: 786-0
[56] = system: M19-MEL
[57] = system: OVCAR-5
[58] = system: SK-OV-3
[59] = system: KM-20L2
[60] = system: UACC-257
[61] = system: SK-MEL-28
[62] = system: ACHN
[63] = system: Malme-3M
[64] = system: HOP-62
[65] = system: COLO 205
[66] = system: OVCAR-3
[67] = system: UACC-62
[68] = system: TK-10
[69] = system: BT-549

Measured: GI50

CC(C)C1=Cc2ccc3c(c2C(=O)C1=O)CCCC3
inactive: [1] 10.6 µM | [3] 5.11 µM | [4] 19.1 µM | [6] 2.27 µM | [8] 3.3 µM | [10] 3.31 µM | [11] 1.16 µM | [12] 5.27 µM | [13] 2.12 µM | [14] 1.59 µM | [15] 17.9 µM | [16] 16 µM | [17] 2.15 µM | [18] 17.9 µM | [19] 15 µM | [20] 10.4 µM | [22] 13.1 µM | [24] 20.2 µM | [25] 17.1 µM | [26] 5.27 µM | [28] 6.61 µM | [29] 2.21 µM | [30] 13.8 µM | [31] 9.91 µM | [32] 1.95 µM | [33] 4.32 µM | [34] 9.14 µM | [35] 17.1 µM | [36] 2.05 µM | [37] 2.44 µM | [38] 7.35 µM | [40] 4.93 µM | [41] 3.51 µM | [42] 7.11 µM | [43] 21.4 µM | [44] 5.64 µM | [45] 8.07 µM | [46] 9.06 µM | [47] 9.42 µM | [48] 7.1 µM | [51] 1.51 µM | [52] 5.96 µM | [54] 12.8 µM | [55] 2.43 µM | [56] 2.9 µM | [57] 13.9 µM | [58] 2.92 µM | [59] 19.1 µM | [60] 3.47 µM | [61] 7.5 µM | [62] 3.49 µM | [63] 2.58 µM | [64] 21.4 µM | [65] 11.4 µM | [66] 2.33 µM | [67] 7.46 µM | [68] 2.52 µM
active: [2] 0.78 µM | [5] 0.515 µM | [7] 0.998 µM | [9] 0.227 µM | [21] 0.955 µM | [23] 1 µM | [39] 0.865 µM | [49] 1.01 µM | [50] 1.08 µM | [53] 0.65 µM
3.08 µM: [27]

CN1CCN(C)C12C=c1ccccc1=CC21CC1
inactive: [1] 30.8 µM | [2] 21.6 µM | [3] 18.6 µM | [4] 37.8 µM | [5] 25.3 µM | [6] 24.5 µM | [7] 28.7 µM | [8] 22.2 µM | [9] 45.1 µM | [10] 40.9 µM | [11] 18.2 µM | [12] 81.1 µM | [13] 30 µM | [14] 35.4 µM | [15] > 100 µM | [16] 38.4 µM | [17] 23.9 µM | [18] > 83.8 µM | [19] > 100 µM | [20] 34.6 µM | [21] 74.1 µM | [22] > 100 µM | [23] 26.4 µM | [24] 21.9 µM | [25] 16.3 µM | [26] 68.7 µM | [28] 27.4 µM | [29] 57 µM | [30] 32.3 µM | [31] 53.6 µM | [32] 25.1 µM | [33] 55.5 µM | [34] > 95.9 µM | [35] 29 µM | [36] 45.6 µM | [37] 22.8 µM | [38] 24.3 µM | [39] 22.1 µM | [40] > 72.4 µM | [41] > 75 µM | [42] 29.7 µM | [43] > 68.2 µM | [44] 53.5 µM | [45] 37.9 µM | [46] 17.2 µM | [69] 41 µM | [47] > 100 µM | [48] 23.2 µM | [49] 3.02 µM | [50] 17.1 µM | [51] 71.3 µM | [52] > 91.4 µM | [53] 24.2 µM | [54] > 77.6 µM | [55] 54 µM | [56] 19.3 µM | [57] > 100 µM | [58] > 92.9 µM | [59] 27.3 µM | [60] 23.7 µM | [61] 20.7 µM | [62] 74.8 µM | [63] 28.5 µM | [64] > 91.4 µM | [65] 15.7 µM | [66] 62.1 µM | [67] 18.6 µM | [68] 66.7 µM
32.8 µM: [27]
